Literature values in US11472851B2, “Recombinant bacillus subtilis and application thereof” (priority 2019, dated 2022).

In the case of “Sublancin (GLGKAQCAALWLQCASGGTIGCGGGAVACQNYRQFCR; Sublancin)”, the “immune function of poultry” value (poultry) is given as “enhance the immune function of poultry” and the phagocytosis of macrophages (macrophages) is given as “enhance the phagocytosis of macrophages”.
